Experimental data published in US8299031B2, “Human semen enhancer of viral infection peptides (SEVI) and their use” (Viro Pharmaceuticals GmbH & Co. KG, priority 2006, dated 2012).
Read-outs that look alike come from different tables or passages of the source. Ends that are not written are not given here.

Assays:
HIV-1 NL4-3 [1] = assay: HIV-1 replication in PBMC after low dose infection (p24 antigen ELISA); type: cell-based; details: 2 μg/ml SEVI
SIVagm-tan 1 = type: cell-based, SIV; details: TZM-bl
HIV-1 NL4-3 [2] = assay: HIV-1 infection rate of CEMX174 5.25 M7 cells (GFP UV microscopy and luciferase); type: cell-based; details: CEMX174 5.25 M7, 0.3 ng p24, 2 days
Procedure: The rate of virus infection was detected after 2 days by performing first UV microscopy (FIG. 10A) and thereafter by measuring luciferase activities of cell lysates of the same samples (FIG. 10B). […] After infection of control samples containing no peptide, 2.6% of the cells expressed GFP corresponding to luciferase activities of 44,457 RLU/s (FIG. 10). In the presence of 2 μg/ml SEVI the average infection rates were nearly doubled to 4.6% (66,327 RLU/s). At the highest concentration of 50 μg/ml more than 99% of the cells became infected by HIV-1. Median luciferase activities in those samples were 1,701,156 RLU/s, corresponding to a 38 fold increase of infection (1,701,156 RLU/s divided by 44,457 RLU/s of control cells).
FIG. 10. […] The rate of virus infection was detected after 2 days by performing UV microscopy (A) or by measuring luciferase activity of cellular lysates (B). RLU/s: relative light units per second.

SIVmac239 = type: cell-based, SIV; details: TZM-bl
SIVcpz-tan 1 = type: cell-based, SIV; details: CEMX174 5.25 M7 cells
HIV-1 = assay: Preincubation of virus stock with SEVI and 50-fold dilution into cell culture; type: cell-based; details: diluted 50-fold
Procedure: SEVI could bind to viral particles and increase their infectivity, or enhance the susceptibility of target cells to HIV-1 infection. To distinguish between these possibilities, we preincubated the virus stock with various concentrations of fibrilar PAP(248-286) for 5 min in a small volume and subsequently added the virus/SEVI mixture to the cell culture, thereby diluting it 50-fold. For comparison, SEVI was directly added to the cell culture and subsequently infected with the same viral dose. […] In relation to the final peptide concentration in the infected culture, viral infectivity was enhanced by 50-fold (FIG. 17A, right).
(§1) FIG. 17. SEVI interacts with the HIV-1 particle and enhances its binding to the cell. A) Interaction of SEVI with HIV-1. SEVI was either preincubated with the virus stock in a small volume and subsequently added to the cells (□) or SEVI and the HIV-1 stocks were added separately to the cells (▪). The SEVI concentrations during incubation with the virus stocks are shown in the left panel and the concentrations relating to the total cell culture in the right panels. B) SEVI enhances binding of wildtype and Env-defective viral particles to the cells. u, uninfected cells. Data represent average values±s.d. (n=3).

HIV-2 ROD10 = type: cell-based
HIV-1 NL4-3 [3] = type: cell-based; details: for luciferase activities increased compared to control cells containing no SEVI: 50 μg/ml peptide; for effect on HIV-1 infection (luciferase activities relative to no peptide): peptides 5 mg/ml shaken 20 h 37 °C, CEMX174 5.25 M7, 30 pg p24 HIV-1 NL4-3, 20 hours
Procedure: To analyze the effect of synthesized SEVI peptides on HIV infection, samples were resuspended in FBS free DMEM to yield a stock solution of 5 mg/ml and shacked for 20 h at 37° C. at 1400 rpm (rotations per minute) resulting in a turbid solution.
All peptides indicated in FIG. 7B were dissolved and incubated under the same conditions. […] In the presence of 50 μg/ml peptide, luciferase activities were increased about 30 fold compared to those from control cells containing no SEVI (FIG. 7A).
FIG. 7. Several synthetic PAP fragments stimulate HIV-1 infection. A) Lyophilized peptides were resuspended in DMEM without FBS and incubated for 20 h at 37° C. at 1,400 rpm using a thermo mixer (Eppendorf). […] After 20 h virus infection was detected using the Luciferase assay reagent (Promega). […] B) Shown are the peptide sequences analyzed.

HIV-1 particles = assay: Binding of viral particles to TZM-bl cells (cell-associated p24 ELISA); type: cell-based; details: 3 hs
Procedure: To further assess how SEVI might enhance HIV-1 infection we incubated TZM-bl cells for 3 hs with viral particles in the presence or absence of fibrilar PAP(248-286). Thereafter, unbound virus was removed by extensive washing and the amount of cell-associated p24 antigen was determined by ELISA. SEVI increased binding of HIV-1 to the target cells up to 8-fold in a dose-dependent manner (FIG. 17B, left).
as §1

TZM-bl cells = assay: MTT cytotoxicity assay; type: cell-based; details: 3 days, high concentrations of SEVI
Procedure: The day after medium was replaced by 90 μl of fresh medium and SEVI [fibrilar […]] dilutions were added to a final volume of 100 μl. After 3 days 10 μl of a 5 mg/ml MTT (Sigma; # M2128) solution was added and cells were incubated for 4 h at 37° C. In living cells mitochondrial dehydrogenases […] the yellow MTT salt to blue formazan crystals (Schiff et al.; 1985). After dissolving the crystals in 1:1 Ethanol/DMSO, samples containing living cells appear blue whereas samples from dead cells are clear. Optical density (OD) was measured at 560/650 nm using a photometer (Molecular Devices).
FIG. 9. SEVI has no effect in cell viability or endogenous LTR activity. […] After 3 days 10 μl of a 5 mg/ml MTT solution was added and cells were incubated for 4 h at 37° C. Thereafter formazan crystals were dissolved in 1:1 Ethanol/DMSO and OD was measured at 560/650 nm. […] B) Endogenous LTR activity: After 3 days incubation with peptides endogenous LTR activity was measured using the Gal Screen Kit. Shown are median β-galactosidase activities±SD derived from 6 samples. RLU/s: relative light units per second.

[4] = system: NL4-3 V3 recombinant viruses and molecular HIV-1 clones; details: for infection more efficient than control cells without peptide: 0.4 μg/ml SEVI
[5] = system: HIV-1 NL4-3 (X4) and HIV-1 NL4-3 YU-2 (R5); assay: Infection of TZM-bl cells with subinfectious virus doses (Gal Screen); type: cell-based; details: 2 μg/ml SEVI or more, 0.1 and 0.6 pg p24 of X4 and R5 tropic HIV, 3 days

GIHKQKEKSRLQGGVLVNEILNHMKRATQIPSYKKLIMY (Synthetic fragment of the PAP protein) [PAP(248-286)]
virus replication (p24 antigen ELISA) (HIV-1 NL4-3 [1]; PBMC infected with 1.2 and 0.12 pg): virus only replicated in samples containing SEVI
virus replication (p24 antigen ELISA) (HIV-1 NL4-3 [1]; PBMC infected with 120 and 12 pg p24 antigen): replicated with faster kinetics and to higher levels than in control cells without peptide
effect on SIVagm infection (SIVagm-tan 1): favoured
effect on NL4-3 infection (HIV-1 NL4-3 [2]): dose dependently promoted NL4-3 infection
effect on SIVmac infection (SIVmac239): favoured
effect on SIVcpz infection (SIVcpz-tan 1): favoured
viral infectivity enhanced in relation to the final peptide concentration in the infected culture (HIV-1; 5 min preincubation with virus stock): 50 fold
effect of diluting the HIV-1/SEVI mixture after preincubation (HIV-1; 5 min preincubation): did not at all reduce the magnitude of SEVI-mediated infectivity enhancement
increase of viral infection (HIV-2 ROD10; 50 μg/ml SEVI, TZM-bl infected with 2 μl of HIV-2): two orders of magnitude
effect on infection rates of HIV-2 (HIV-2 ROD10; TZM-bl): dose dependently enhanced infection rates
luciferase activities increased compared to control cells containing no SEVI (HIV-1 NL4-3 [3]): about 30 fold
effect on HIV-1 infection (luciferase activities relative to no peptide) (HIV-1 NL4-3 [3]): dose dependently enhanced HIV-1 infection
binding of HIV-1 particles lacking Env (HIV-1 particles): enhanced binding of HIV-1 particles lacking Env
increase of binding of HIV-1 to the target cells (cell-associated p24) (HIV-1 particles; wildtype HIV-1, dose-dependent): up to 8 fold

HKQKEKSRLQGGVLVNEILNHMKRATQIPSYKKLIMY [PAP(250-286)]
cell viability (MTT) (TZM-bl cells): not affected

KEKSRLQGGVLVNEILNHMKRATQIPSYKKLIMY (Synthetic fragment of the PAP protein) [PAP(253-286)]
infection more efficient than control cells without peptide ([4]; 93br025-9): 1.9 fold
infection more efficient than control cells without peptide ([4]; HIV-1 LAI): 2.7 fold
maximum infectivity compared to infected controls without peptide ([4]; higher concentrations, P51-S): 3,045%
effect on NL4-3 infection (HIV-1 NL4-3 [2]): dose dependently promoted NL4-3 infection
luciferase activities increased compared to control cells containing no SEVI (HIV-1 NL4-3 [3]): about 30 fold
effect on HIV-1 infection (luciferase activities relative to no peptide) (HIV-1 NL4-3 [3]): dose dependently enhanced HIV-1 infection

KQKEKSRLQGGVLVNEILNHMKRATQIPSYKKLIMY (Synthetic fragment of the PAP protein) [PAP(251-286)]
effect on NL4-3 infection (HIV-1 NL4-3 [2]): dose dependently promoted NL4-3 infection
detection of infection (β-galactosidase activities) [5]: readily detectable
luciferase activities increased compared to control cells containing no SEVI (HIV-1 NL4-3 [3]): about 30 fold
effect on HIV-1 infection (luciferase activities relative to no peptide) (HIV-1 NL4-3 [3]): dose dependently enhanced HIV-1 infection

QKEKSRLQGGVLVNEILNHMKRATQIPSYKKLIMY (Synthetic fragment of the PAP protein) [PAP(252-286)]
luciferase activities increased compared to control cells containing no SEVI (HIV-1 NL4-3 [3]): about 30 fold
effect on HIV-1 infection (luciferase activities relative to no peptide) (HIV-1 NL4-3 [3]): dose dependently enhanced HIV-1 infection
